These results are taken from article PMC6912857 (Journal of Medicinal Chemistry, 2019).

Molecules are shown by their SMILES. Entries after “also recorded” stand apart in the source; their conditions may differ.

For data set [1] the following is noted: cited from earlier work.
Another data set deals with hH3R (Homo sapiens, UniProt Q9Y5N1). The data set is described as follows: CRE-luciferase reporter gene assay, hH3R expressed on HEK293T cells. The conditions noted are these: intrinsic activity compared to histamine. The class given is cell-based. Background: In a reporter assay the amount or activity of a reporter protein is the signal.
hH3R, sequence (Q9Y5N1 whole entry): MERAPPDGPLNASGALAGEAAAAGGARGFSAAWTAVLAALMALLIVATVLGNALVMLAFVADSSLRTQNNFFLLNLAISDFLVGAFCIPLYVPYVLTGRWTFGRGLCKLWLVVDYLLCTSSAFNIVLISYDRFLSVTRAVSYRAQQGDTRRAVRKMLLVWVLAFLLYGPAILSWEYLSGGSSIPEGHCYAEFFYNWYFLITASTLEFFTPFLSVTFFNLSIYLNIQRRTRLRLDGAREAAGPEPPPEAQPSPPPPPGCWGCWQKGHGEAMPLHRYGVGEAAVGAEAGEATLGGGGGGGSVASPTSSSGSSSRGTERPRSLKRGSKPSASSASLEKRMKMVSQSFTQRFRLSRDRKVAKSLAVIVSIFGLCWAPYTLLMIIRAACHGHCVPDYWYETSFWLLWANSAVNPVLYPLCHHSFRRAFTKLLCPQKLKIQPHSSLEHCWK
The next data set relates to rats. The conditions noted are these: cited from earlier work.
The target of another data set is T1, mH4R (Mus musculus, UniProt Q91ZY2).
T1 sequence (Q91ZY2 1-391): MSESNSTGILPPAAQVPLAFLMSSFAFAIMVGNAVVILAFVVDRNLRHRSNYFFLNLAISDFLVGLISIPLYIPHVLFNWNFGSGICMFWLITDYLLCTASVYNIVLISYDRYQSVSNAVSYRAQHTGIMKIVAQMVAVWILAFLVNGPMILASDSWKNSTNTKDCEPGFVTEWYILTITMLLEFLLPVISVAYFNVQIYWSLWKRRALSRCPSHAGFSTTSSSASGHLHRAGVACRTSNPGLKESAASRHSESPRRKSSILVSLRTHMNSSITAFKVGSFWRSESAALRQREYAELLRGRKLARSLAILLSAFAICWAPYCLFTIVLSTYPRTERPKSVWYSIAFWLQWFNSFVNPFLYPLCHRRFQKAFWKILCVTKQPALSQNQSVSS
Kind of data set: CRE-luciferase reporter gene assay, mH4R expressed on HEK293T cells. It counts as cell-based.

For another data set, the target named is H1R (Homo sapiens, UniProt P35367). The data set is described as follows: NFAT-luciferase reporter gene assay, H1R. The class given is cell-based. The conditions noted are these: up to 10 μM.
H1R, sequence (P35367 whole entry, species assumed): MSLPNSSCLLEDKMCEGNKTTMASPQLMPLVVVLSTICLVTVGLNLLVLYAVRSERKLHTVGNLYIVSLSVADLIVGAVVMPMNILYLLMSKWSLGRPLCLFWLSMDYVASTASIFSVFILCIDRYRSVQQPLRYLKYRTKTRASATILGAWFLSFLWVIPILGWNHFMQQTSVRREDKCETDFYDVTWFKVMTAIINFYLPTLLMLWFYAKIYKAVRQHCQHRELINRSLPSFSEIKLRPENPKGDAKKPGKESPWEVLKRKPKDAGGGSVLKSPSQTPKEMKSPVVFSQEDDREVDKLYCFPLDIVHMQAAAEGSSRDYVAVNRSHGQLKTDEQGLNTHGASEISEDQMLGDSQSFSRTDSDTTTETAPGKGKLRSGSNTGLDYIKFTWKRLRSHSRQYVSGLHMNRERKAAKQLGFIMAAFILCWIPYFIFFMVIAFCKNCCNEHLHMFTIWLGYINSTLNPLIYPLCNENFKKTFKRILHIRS
For another data set, the target named is H2R (Homo sapiens, UniProt P25021). The data set is described as follows: CRE-luciferase reporter gene assay, H2R. The class given is cell-based. The conditions noted are these: up to 10 μM.
H2R, sequence (P25021 whole entry, species assumed): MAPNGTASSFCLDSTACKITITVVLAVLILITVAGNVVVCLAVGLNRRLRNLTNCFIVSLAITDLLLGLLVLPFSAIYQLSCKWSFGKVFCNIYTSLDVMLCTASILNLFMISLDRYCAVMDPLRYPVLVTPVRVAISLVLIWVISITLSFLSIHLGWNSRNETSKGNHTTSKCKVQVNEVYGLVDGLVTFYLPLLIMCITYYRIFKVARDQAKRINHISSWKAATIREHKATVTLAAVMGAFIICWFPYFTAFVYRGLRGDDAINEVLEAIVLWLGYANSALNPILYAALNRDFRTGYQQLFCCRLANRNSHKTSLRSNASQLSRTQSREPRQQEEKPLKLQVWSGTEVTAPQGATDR
The nature of data set [2]: Nephelometry / aqueous solubility. The class given is physicochemical. As to conditions: up to 100 mM concentration.
A further data set deals with Male C57Bl6 mice. Kind of data set: Social recognition test in mice.
A short description of data set [3]: Metabolic stability in mouse liver microsomes. (In general: Liver microsomes are vesicles of endoplasmic reticulum, rich in cytochrome P450 enzymes.)

In the case of `c1ncc(CC2CCNCC2)[nH]1` [immepip], the “effect on memory in the social recognition test” value in [1] was “cause amnesia”.
Consider `S=C(NC1CCCCC1)N1CCC(c2cnc[nH]2)CC1` [thioperamide], for which the “effect on memory in the social recognition test” value in [1] was “improve short-term memory”.
For `CCNC1CN(c2cc(CC)nc(N)n2)C1` [12c, 4-Ethyl-6-(3-(ethylamino)azetidin-1-yl)pyrimidin-2-amine], the “α (intrinsic activity)” value at hH3R is recorded as approximately 1.0.
Take `N=C(N)SCCc1cnc[nH]1` [Imetit, imetit]: the “effect on memory in the object recognition and passive avoidance tests” value in the data set with rats is reported as “memory impairments”.
The half-life is the time in which the quantity being followed falls by half. A higher half-life goes with slow loss. `CCCNC1CN(c2ccnc(N)n2)C1.O.O=C(O)/C=C/C(=O)O` [14d, 4-(3-(Propylamino)azetidin-1-yl)pyrimidin-2-amine Fumarate Hydrate]: at mH4R, the “selectivity in potency mH3R vs mH4R” value was more than 10 fold. The “activation of H1R” value on H1R is “does not activate”. Further, the “activation of H2R” value at H2R is “does not activate”. Further, the “microprecipitation (nephelometry)” value in data set [2] is “no microprecipitation”. Also, in the data set with Male C57Bl6 mice (indicated by effects in the in vivo social memory test, 5 mg/kg i.p., 5 mg/kg), the “CNS / brain penetration” value is “clearly penetrating the CNS; also recorded: appreciable brain penetration”. For the same molecule, in the data set with Male C57Bl6 mice (mice, 5 mg/kg i.p.), the “discrimination index (DI)” value is listed as “negative”. In the data set on Male C57Bl6 mice (mice, 5 mg/kg i.p. 30 min before the training session, 5 mg/kg), the “social recognition memory (discrimination of novel vs familiar mouse)” value was “amnesic effects; also recorded: did not discriminate between the novel and the familiar mouse; also recorded: impairs social recognition”. Further, the “exploration time of the cage during test” value in the data set on Male C57Bl6 mice (mice, 5 mg/kg i.p., during test) was found to be 148.3 ± 69.4 s. Moreover, the “exploration time of the cage during training” value in the data set with Male C57Bl6 mice (mice, 5 mg/kg i.p., during training) is listed as 136.2 ± 44.1 s. Moreover, the sociability entry in the data set with Male C57Bl6 mice (mice, 5 mg/kg i.p., training session) is recorded as “did not affect”. In addition, the “slower elimination compared with the reference control verapamil” value in data set [3] (mouse liver microsomes) is given as “more than 2 times”. The molecule further had a half-life at 50 μM in [3] (mouse, microsomes, pH 7.4) of 131 min.
